Measurements published in the supplement of paper PMC5844555.

Key:
Test in all cases: 3' UTR reporter interaction score (median-centred robust z-score of log2 firefly/Renilla activity); higher = less repression of the 3' UTR reporter
Conditions in all cases: HEK293T; 48 h
MYB = test system: MYB
Method in brief: (§1)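 HEK293T cells were seeded at 10,000 per well in 96-well plates and co-transfected with DharmaFECT Duo, using 100 ng of a firefly luc2P reporter carrying the gene's 3' UTR, 20 ng of Renilla pRL-TK control and 2.5 pmol of miRNA mimic. Both luciferase activities were measured 48 h after transfection. The interaction score is the log-transformed firefly/Renilla ratio, converted to a per-plate robust z-score from the median and median absolute deviation and then median-centred per miRNA, with more negative values indicating interaction. Scores were averaged across at least two independent screens.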

RB1 = test system: RB1
Method in brief: as §1

PHF6 = test system: PHF6
Method in brief: as §1

TP53 = test system: TP53
Method in brief: as §1

BRCA2 = test system: BRCA2
Method in brief: as §1

MYT1L = test system: MYT1L
Method in brief: as §1

PHOX2B = test system: PHOX2B
Method in brief: as §1

FBXW7 = test system: FBXW7
Method in brief: as §1

EZH2 = test system: EZH2
Method in brief: as §1

HRAS = test system: HRAS
Method in brief: as §1

ZEB2 = test system: ZEB2
Method in brief: as §1

MYC = test system: MYC
Method in brief: as §1

MYCN = test system: MYCN
Method in brief: as §1

NOTCH1 = test system: NOTCH1
Method in brief: as §1

Sequence	3' UTR reporter interaction score (MYB)	3' UTR reporter interaction score (RB1)	3' UTR reporter interaction score (PHF6)	3' UTR reporter interaction score (TP53)	3' UTR reporter interaction score (BRCA2)	3' UTR reporter interaction score (MYT1L)	3' UTR reporter interaction score (PHOX2B)	3' UTR reporter interaction score (FBXW7)	3' UTR reporter interaction score (EZH2)	3' UTR reporter interaction score (HRAS)	3' UTR reporter interaction score (ZEB2)	3' UTR reporter interaction score (MYC)	3' UTR reporter interaction score (MYCN)	3' UTR reporter interaction score (NOTCH1)
AAAGUGCUUCCUUUUAGAGGC	-0.24	0.31	-0.00693	0.32	-0.921	-0.527	0.798	0.555	-0.74	-0.194	0.738	-0.277	0.692	
AAAGUGCUUCUCUUUGGUGGGUU	-0.782	0.799	-0.0534	0.499	0.0116	-0.567	1.31	0.685	-1.56	0.266	0.955	-0.26		0.392
AACAUUCAUUGCUGUCGGUGGG	0.0638	0.0638	0.159	0.443	0.08	-0.567	1.46	0.243	0.0847	-0.854	0.114	0.124		-0.249
AAUAUAACACAGAUGGCCUGU	-0.573	-1.07		0.139	-0.646	-0.827	0.795	0.647	0.634	0.155	-0.625	0.886		0.989
CAAGAACCUCAGUUGCUUUUGU	0.335		-0.741	0.405	-0.995	-0.132	-0.954	-0.0454	0.928	1.03	-1.03	0.13		-0.974
CACGCUCAUGCACACACCCAC		-0.279	-3.04	1.21	0.0228	0.0877	-1.58	-1.61	0.315		1.26	0.38	-0.371	0.398
CAUUAUUACUUUUGGUACGCG	0.454	0.974	-0.223	0.0619	-0.00235	-0.409	0.437	0.0986	0.119	0.225	0.0582	-0.4		-0.00418
GGCAGGUUCUCACCCUCUCUAGG			-0.606	-0.0357	-0.0484	-0.84	-1.4	-1.49	0.162	0.517	-0.268	0.583	0.446	0.309
UAAAGUGCUUAUAGUGCAGGUAG	-0.124	0.204	1.96	-0.181	1.9	-0.414		-0.632	-0.364	0.379	0.262	-0.207	-0.791	0.917
UAGGUAGUUUCCUGUUGUUGG	0.0231	-0.415	-0.855	0.913	-0.449	-0.34	0.179	-0.0724	0.324	-0.324	0.639	-0.416		0.244
UAGUAGACCGUAUAGCGUACG	1.44	0.459	0.821	0.138	-0.367	1.28		-0.321	-0.435	-0.49	2.18	-0.638	0.359	1.8
UAUUGCACAUUACUAAGUUGC		0.119	0.521	-0.165	0.064	0.0117		-3.29	-1.18	-0.69	-0.436	0.647	1.19	-0.36
UCUGCUCAUACCCCAUGGUUUCU	-1.65	1.62	1.4	0.807	1.96	-0.849		-0.521	0.623	-0.642	-0.101	0.772	-0.385	-0.475
UGAGGUAGUAGGUUGUAUGGUU	0.761		0.487	-0.643	0.199	0.588	-0.072	0.348	-3.88	0.339	0.734	-2.26	-4.05	
UGAUUGUAGCCUUUUGGAGUAGA	1.56	-0.751	0.465	-0.415	1.26	-0.331	-0.496	-0.741	0.191	1.52	-1.2	-1.19	0.938	
UGUAAACAUCCUCGACUGGAAG	0.498	0.575	-2.11	-0.35	-0.114	0.672		0.336	0.0496	0.246	-1.69	-0.476	-0.46	
UGUCUUACUCCCUCAGGCACAU	-0.229	0.999	2.68	0.565	0.202	-2.22	0.667	1.02	-0.24	-1.06	-0.976	-0.519	-1.1	
UUCUCCAAAAGGGAGCACUUUC	-0.361	1.31	-0.0417	-0.24	-0.958	2.01		-0.759	-0.381	0.596	1.08	-0.329	0.94	-0.166
UUGAAACAAUCUCUACUGAAC	-0.218	-1.43	-1.21	-0.126	-0.93	0.3	0.857	1.05	0.163	-0.263	0.917	0.402		0.836
UUGUGUCAAUAUGCGAUGAUGU	-0.649	0.229	0.901	-0.384	-0.078	-0.212	-1.6	-1.37	0.77	1.07	0.639	0.588	-0.328	
